In patent publication US7547706B2, “1H-pyrimido[4,5-b]indole derivatives, their preparation and therapeutic use” (Sanofi-Aventis, priority 2005, dated 2009) one finds melting point data, which are given here for 29 compounds.

Where a name gives a salt, the structure may show the parent alone.

For `Cc1cc(-c2nc(C(=O)N(C)C)c3c4ccc(Cl)cc4n(C)c3n2)cnc1C.Cl`, the melting point (usually the temperature, or range, at which the solid turns liquid) was in the range of 285 to 289 °C. In the case of `CN(C)C(=O)c1nc(-c2cnc3c(c2)CCCC3)nc2c1c1ccc(Cl)cc1n2C.Cl` it was 289 to 291 °C; in that of `Cc1cc(-c2nc(C(=O)N(C)C)c3c4ccc(Cl)cc4n(C)c3n2)cc(C)n1.Cl`, 288 to 292 °C. In the case of `CC(C)Cn1c2cc(Cl)ccc2c2c(C(=O)N(C)C)nc(-c3ccncc3)nc21` (as salt: HCl) [Compound 31, 7-chloro-9-isobutyl-N,N-dimethyl-2-pyridin-4-yl-9H-pyrimido[4,5-b]indole-4-carboxamide] it was 230 to 236 °C; in that of `CN(C)Cc1ccc(-c2nc(C(=O)N(C)C)c3c4ccc(Cl)cc4n(C)c3n2)cn1` (as salt: HCl) [Compound 47, 7-chloro-2-{6-[(dimethylamino)methyl]pyridin-3-yl}-N,N,9-trimethyl-9H-pyrimido[4,5-b]indole-4-carboxamide], 240 to 242 °C; in that of `CN(C)C(=O)c1nc(-c2ccccc2)nc2c1c1ccccc1n2C` [Compound 1, N,N,9-trimethyl-2-phenyl-9H-pyrimido[4,5-b]indole-4-carboxamide], 193 to 195 °C. In the case of `CN(C)C(=O)c1nc(-c2ccccc2)nc2c1c1ccc(F)cc1n2C` [Compound 3, 7-fluoro-N,N,9-trimethyl-2-phenyl-9H-pyrimido[4,5-b]indole-4-carboxamide] it was 229 to 231 °C; in that of `CN(C)C(=O)c1nc(-c2ccccc2)nc2c1c1cc(Cl)ccc1n2C` [Compound 4, 6-chloro-N,N,9-trimethyl-2-phenyl-9H-pyrimido[4,5-b]indole-4-carboxamide], 222 to 224 °C; in that of `CN(C)C(=O)c1nc(-c2ccccc2)nc2[nH]c3cc(Cl)ccc3c12` [Compound 5, 7-chloro-N,N-dimethyl-2-phenyl-9H-pyrimido[4,5-b]indole-4-carboxamide], 232 to 233 °C. `CN1CCN(C(=O)c2nc(-c3ccccc3)nc3c2c2ccc(Cl)cc2n3C)CC1` [Compound 11, 7-chloro-9-methyl-4-[(4-methylpiperazin-1-yl)carbonyl]-2-phenyl-9H-pyrimido[4,5-b]indole] returned a melting point of 236 to 238 °C. Regarding `Cn1c2cc(Cl)ccc2c2c(C(=O)N3CCCC3)nc(-c3ccncc3)nc21` [Compound 14, 7-chloro-9-methyl-2-pyridin-4-yl-4-(pyrrolidin-1-ylcarbonyl)-9H-pyrimido[4,5-b]indole], the melting point lay within 256 to 258 °C.

Turning to `CN(C)C(=O)c1nc(-c2cccnc2)nc2c1c1ccc(Cl)cc1n2C` [Compound 16, 7-chloro-N,N,9-trimethyl-2-pyridin-3-yl-9H-pyrimido[4,5-b]indole-4-carboxamide], the melting point lay within 283 to 284 °C. In the case of `CN(C)C(=O)c1nc(-c2cnccn2)nc2c1c1ccc(Cl)cc1n2C` [Compound 18, 7-chloro-N,N,9-trimethyl-2-pyrazin-2-yl-9H-pyrimido[4,5-b]indole-4-carboxamide] it was 272 to 273 °C. In the case of `CN(C)C(=O)Cc1nc(-c2ccncc2)nc2c1c1ccc(Cl)cc1n2C` [Compound 21, 2-(7-chloro-9-methyl-2-pyridin-4-yl-9H-pyrimido[4,5-b]indol-4-yl)-N,N-dimethylacetamide] it was 231 to 232 °C; in that of `CN(C)C(=O)Cc1nc(-c2cccnc2)nc2c1c1ccc(Cl)cc1n2C` [Compound 22, 2-(7-chloro-9-methyl-2-pyridin-3-yl-9H-pyrimido[4,5-b]indol-4-yl)-N,N-dimethylacetamide], 248 to 251 °C.

`CN(C)C(=O)c1nc(-c2ccccc2)nc2[nH]c3ccccc3c12` [Compound 23, N,N-dimethyl-2-phenyl-9H-pyrimido[4,5-b]indole-4-carboxamide] registered a melting point of 218 to 219 °C. In the case of `CCOC(=O)c1nc(-c2ccccc2)nc2c1c1ccc(Cl)cc1n2C` [Compound 24, Ethyl 7-chloro-9-methyl-2-phenyl-9H-pyrimido[4,5-b]indole-4-carboxylate] it was 139 to 140 °C. Compound `Cn1c2cc(Cl)ccc2c2c(C(=O)O)nc(-c3ccccc3)nc21` [Compound 26, 7-chloro-9-methyl-2-phenyl-9H-pyrimido[4,5-b]indole-4-carboxylic acid] had a melting point of 208 to 209 °C. In the case of `COc1ccc(-c2nc(C(=O)N(C)C)c3c4ccc(Cl)cc4n(C)c3n2)cn1` [Compound 28, 7-chloro-2-(6-methoxypyridin-3-yl)-N,N,9-trimethyl-9H-pyrimido[4,5-b]indole-4-carboxamide] it was 267 to 268 °C; in that of `COc1cc(-c2nc(C(=O)N(C)C)c3c4ccc(Cl)cc4n(C)c3n2)ccn1` [Compound 30, 7-chloro-2-(2-methoxypyridin-4-yl)-N,N,9-trimethyl-9H-pyrimido[4,5-b]indole-4-carboxamide], 278 to 279 °C. In the case of `CN(C)C(=O)c1nc(C2CC2)nc2c1c1ccc(Cl)cc1n2C` [Compound 32, 7-chloro-2-cyclopropyl-N,N,9-trimethyl-9H-pyrimido[4,5-b]indole-4-carboxamide] it was 197 to 198 °C; in that of `Cc1nc(C(=O)N(C)C)c2c3ccc(Cl)cc3n(C)c2n1` [Compound 33, 7-chloro-N,N,2,9-tetramethyl-9H-pyrimido[4,5-b]indole-4-carboxamide], 193 to 195 °C; in that of `CC(C)c1nc(C(=O)N(C)C)c2c3ccc(Cl)cc3n(C)c2n1` [Compound 34, 7-chloro-2-isopropyl-N,N,9-trimethyl-9H-pyrimido[4,5-b]indole-4-carboxamide], 125 to 126 °C. In the case of `CN(C)C(=O)c1nc(C2CCOCC2)nc2c1c1ccc(Cl)cc1n2C` [Compound 35, 7-chloro-N,N,9-trimethyl-2-(tetrahydro-2H-pyran-4-yl)-9H-pyrimido[4,5-b]indole-4-carboxamide] it was 174.5 to 175.5 °C; in that of `CN(C)C(=O)c1nc(-c2ccc(Cl)nc2)nc2c1c1ccc(Cl)cc1n2C` [Compound 37, 7-chloro-2-(6-chloropyridin-3-yl)-N,N,9-trimethyl-9H-pyrimido[4,5-b]indole-4-carboxamide], 275 to 276 °C. `CCOc1ccc(-c2nc(C(=O)N(C)C)c3c4ccc(Cl)cc4n(C)c3n2)cn1` [Compound 39, 7-chloro-2-(6-ethoxypyridin-3-yl)-N,N,9-trimethyl-9H-pyrimido[4,5-b]indole-4-carboxamide] had a melting point of 237 to 239 °C. As for `CCc1ccc(-c2nc(C(=O)N(C)C)c3c4ccc(Cl)cc4n(C)c3n2)cn1` [Compound 40, 7-chloro-2-(6-ethylpyridin-3-yl)-N,N,9-trimethyl-9H-pyrimido[4,5-b]indole-4-carboxamide], the melting point lay within 232 to 235 °C. In the case of `CCc1cncc(-c2nc(C(=O)N(C)C)c3c4ccc(Cl)cc4n(C)c3n2)c1` [Compound 41, 7-chloro-2-(5-ethylpyridin-3-yl)-N,N,9-trimethyl-9H-pyrimido[4,5-b]indole-4-carboxamide] it was 218 to 219 °C; in that of `Cc1cncc(-c2nc(C(=O)N(C)C)c3c4ccc(Cl)cc4n(C)c3n2)c1` [Compound 42, 7-chloro-N,N,9-trimethyl-2-(5-methylpyridin-3-yl)-9H-pyrimido[4,5-b]indole-4-carboxamide], 313 to 314 °C.
